According to patent US20200172473A1, “DUAL MODULATORS OF FARNESOID X RECEPTOR AND SOLUBLE EPOXIDE HYDROLASE” (JOHANN WOLFGANG GOETHE-UNIVERSITÄT FRANKFURT AM MAIN, priority 2017, published 2020):

Experiments:
human FXR = target: T1, human FXR (Homo sapiens, UniProt Q96RI1); test: full-length FXR reporter gene (transactivation) assay in HeLa cells; assay type: cell-based; details: for Emax: HeLa, read-out: FXR activation max. rel. activation (converted); for EC50: full-length FXR reporter gene assay, HeLa cells, read-out: FXR activation EC50
T1 construct: characterized in a full-length (fl) FXR reporter gene assay in HeLa cells; expressed in transfected cells; host or cells: HeLa
T1 sequence (Q96RI1 1-486): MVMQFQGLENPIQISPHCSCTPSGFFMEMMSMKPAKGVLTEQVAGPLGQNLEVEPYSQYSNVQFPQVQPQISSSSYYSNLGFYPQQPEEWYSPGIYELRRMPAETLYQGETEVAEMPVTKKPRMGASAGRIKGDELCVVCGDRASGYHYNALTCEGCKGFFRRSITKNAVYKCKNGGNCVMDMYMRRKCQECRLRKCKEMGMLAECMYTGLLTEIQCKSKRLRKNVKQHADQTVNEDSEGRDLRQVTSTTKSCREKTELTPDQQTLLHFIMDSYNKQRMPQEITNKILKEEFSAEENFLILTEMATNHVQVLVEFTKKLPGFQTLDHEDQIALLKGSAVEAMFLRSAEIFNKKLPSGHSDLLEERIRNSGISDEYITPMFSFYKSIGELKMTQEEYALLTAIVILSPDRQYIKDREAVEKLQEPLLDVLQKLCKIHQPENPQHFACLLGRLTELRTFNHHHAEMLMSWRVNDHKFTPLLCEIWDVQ
T1 sequence (P19793 1-462 partner): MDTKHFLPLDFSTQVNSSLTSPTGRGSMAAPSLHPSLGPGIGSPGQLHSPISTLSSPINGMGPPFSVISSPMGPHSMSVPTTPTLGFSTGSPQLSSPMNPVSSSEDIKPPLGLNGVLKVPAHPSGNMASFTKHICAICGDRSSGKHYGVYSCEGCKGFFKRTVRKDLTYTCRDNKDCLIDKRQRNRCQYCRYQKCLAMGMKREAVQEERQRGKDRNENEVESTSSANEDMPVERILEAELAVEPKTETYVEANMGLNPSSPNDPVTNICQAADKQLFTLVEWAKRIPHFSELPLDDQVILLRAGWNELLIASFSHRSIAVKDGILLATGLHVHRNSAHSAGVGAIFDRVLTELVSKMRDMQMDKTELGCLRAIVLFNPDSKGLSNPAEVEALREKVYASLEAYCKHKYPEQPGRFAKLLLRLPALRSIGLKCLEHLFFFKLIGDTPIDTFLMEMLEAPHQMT
Source text: (§1) This assay is based on a reporter construct containing a firefly luciferase under the control of the FXR response element from bile salt export protein (BSEP). FXR and its hetero dimer partner retinoid X receptor (RXR) as expression constructs under the control of a CMV promoter as well as a constitutively expressed renilla luciferase (SV40 promoter) for normalization and toxicity control were co-transfected. […] The sEH inhibitory potency of the test compounds was quantified in a fluorescence-based assay using recombinant enzyme and the fluorogenic sEH substrate PHOME^37 that is hydrolyzed to a fluorescent 6-methoxynaphtaldehyde by sEH.
Plasmids: pcDNA3-hFXR contains the sequence of human FXR and was already published elsewhere.^47 pGL3 basic (Promega Corporation, Fitchburg, Wis., USA) was used as a reporter plasmid, with a shortened construct of the promotor of the bile salt export protein (BSEP) cloned into the SacI/NheI cleavage site in front of the luciferase gene.^48 pRL-V40 (Promega) was transfected as a control for normalization of transfection efficiency and cell growth. pSG5-hRXR was already published elsewhere as well.^49
Assay procedure: HeLa cells were grown in DMEM high glucose supplemented with 10% FCS, sodium pyruvate (1 mM), penicillin (100 U/mL) and streptomycin (100 μg/mL) at 37° C. and 5% CO2. […] Transient transfection of HeLa cells with BSEP-pGL3, pRL-SV40 and the expression plasmids pcDNA3-hFXR and pSG5-hRXR was carried out using calcium phosphate transfection method. […] Each concentration was tested in triplicate wells and each experiment was repeated independently at least three times. […] Luminescence was measured with a Tecan Infinite M200 luminometer (Tecan Deutschland GmbH, Crailsheim, Germany). Normalization of transfection efficiency and cell growth was done by division of firefly luciferase data by renilla luciferase data multiplied by 1000 resulting in relative light units (RLU). Fold activation was obtained by dividing the mean RLU of the tested compound at a respective concentration by the mean RLU of untreated control. […] EC50 and standard error of the mean values were calculated with the mean relative activation values of at least three independent experiments by SigmaPlot 10.0 (Systat Software GmbH, Erkrath, Germany) using a four parameter logistic regression.

aqueous solubility = assay type: physicochemical; details: LLOQ 0.1 μg/mL
recombinant human sEH = target: T2, recombinant human sEH (Homo sapiens, UniProt P34913); test: fluorescence-based sEH activity assay with PHOME substrate; assay type: biochemical; details: for IC50: recombinant human sEH, PHOME, read-out: sEH inhibition IC50; for inhibition at 50 µM: read-out: sEH % inhibition at indicated conc.
T2 sequence (P34913 1-555): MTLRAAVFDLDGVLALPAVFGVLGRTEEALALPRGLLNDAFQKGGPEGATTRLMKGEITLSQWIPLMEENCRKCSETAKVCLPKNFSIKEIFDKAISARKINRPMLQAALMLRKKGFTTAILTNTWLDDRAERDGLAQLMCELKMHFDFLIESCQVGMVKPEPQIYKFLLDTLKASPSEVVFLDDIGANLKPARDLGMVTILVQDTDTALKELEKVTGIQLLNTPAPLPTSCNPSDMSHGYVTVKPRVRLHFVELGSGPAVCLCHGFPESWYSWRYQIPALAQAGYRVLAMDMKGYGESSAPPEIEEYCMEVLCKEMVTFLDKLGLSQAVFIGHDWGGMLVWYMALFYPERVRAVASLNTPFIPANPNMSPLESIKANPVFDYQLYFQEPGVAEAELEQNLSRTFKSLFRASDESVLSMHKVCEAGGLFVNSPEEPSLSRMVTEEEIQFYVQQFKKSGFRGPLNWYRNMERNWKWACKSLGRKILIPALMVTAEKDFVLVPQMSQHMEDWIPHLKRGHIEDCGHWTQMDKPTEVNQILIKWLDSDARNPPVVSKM
Source text: as §1
The sEH inhibitory potency of the compounds were determined in a fluorescence-based 96-well sEH activity assay using recombinant human enzyme^50,51. Non-fluorescent PHOME (3-phenylcyano-(6-methoxy-2-naphthalenyl)methyl ester 2-oxiraneacetic acid; Cayman Chemicals) which can be hydrolyzed by the sEH to fluorescent 6-methoxynaphthaldehyde served as substrate. Recombinant human sEH (in Bis-Tris buffer, pH 7, with 0.1 mg/mL BSA containing a final concentration of 0.01% Triton-X 100) was pre-incubated with test compounds (in DMSO, final DMSO concentration: 1%) for 30 min at room temperature. […] A blank control (no protein and no compound) as well as a positive control (no compound) were executed. All experiments were conducted in triplicate and repeated in at least three independent experiments. For IC50 calculation, dose-response curves of increasing compound concentrations were recorded.

[1] = system: PPARγ target genes CD36 and FAM3A; test: PPARγ target gene mRNA quantification (qRT-PCR) in HepG2 cells; assay type: cell-based; details: HepG2, 1 μM
[2] = target: T3, cellular sEH (HepG2 cell homogenates) (Homo sapiens, UniProt P34913); details: 10 μM (positive control); DMSO 63±16, blank 499±123
T3 sequence (P34913 1-555): T2 sequence (P34913 1-555)
Method: 25 ng (+)14(15)-EET-d11 (Cayman Chemical, Ann Arbor, USA) was added and incubation was continued for additional to min at 37° C. A blank test was performed with PBS (containing 0.1 mg/ml BSA) treated likewise. The reactions were stopped by adding 100 μl of ice cold methanol. After centrifugation (2000 rpm, 4° C., 5 min), supernatants were analyzed by LC-MS/MS and the amounts of (±)14(15)-EET-d11 and the corresponding (±)14(15)-DHET-d11 were determined.

Compound	Emax (human FXR) [%]	IC50 (recombinant human sEH) [nM]	EC50 (human FXR) [nM]	also measured
CC(C)(C)c1ccc(C(=O)NCc2ccc(NC(=O)C(F)(F)F)cc2Cl)cc1 [compound 56]	21	–	–	aqueous solubility (aqueous solubility): < 0.1 µg/mL
CC(C)(C)c1ccc(C(=O)NCc2ccc(NS(C)(=O)=O)cc2C(F)(F)F)cc1 [compound 80, 4-(tert-Butyl)-N-(2-trifluoromethyl-4-(methylsulfonamido)benzyl)benzamide]	19	2 ± 0.08	1200 ± 180	–
CC(C)(C)c1ccc(C(=O)NCc2ccc(NS(C)(=O)=O)cc2Cl)c(O)c1 [compound 77, 4-(tert-Butyl-2-hydroxy)-N-(2-chloro-4-(methylsulfonamido)benzyl)benzamide]	–	380 ± 50	–	FXR activation (result in words) (human FXR): antagonistic
Cc1ccc(C(=O)NCc2ccc(C(=O)O)cc2)cc1C [compound 10]	12	–	–	inhibition at 50 µM (recombinant human sEH): 52 ± 1%
CCc1ccc(CCOc2ccc(CC3SC(=O)NC3=O)cc2)nc1 (centres unmarked) [pioglitazone, reference compound]	–	–	–	CD36 mRNA expression compared to vehicle set as 100% [1]: 353±43%; FAM3A mRNA expression compared to vehicle set as 100% [1]: 310±66%
CC(C)(C)c1ccc(C(=O)NCc2ccc(NS(C)(=O)=O)cc2Cl)cc1O [compound 78, 4-(tert-Butyl-3-hydroxy)-N-(2-chloro-4-(methylsulfonamido)benzyl)benzamide]	24	16 ± 0.6	3 ± 0.001	–
O=C(O)c1ccc(CNC(=O)c2ccc3ccccc3c2)cc1 [compound 17]	18	–	–	inhibition at 50 µM (recombinant human sEH): 45 ± 1%
O=C(Nc1ccc(I)cc1)NC1CCCCC1 [CIU, reference compound]	–	–	–	(±)14(15)-EET-d11/(±)14(15)-DHET-d11 ratio [2]: 519±55; activity in FXR reporter gene assay (human FXR; 10 μM): no activity
Cc1cc(CNC(=O)c2ccc(C(C)(C)C)cc2)ccc1C(=O)O [compound 26]	14	–	–	inhibition at 50 µM (recombinant human sEH): 53 ± 1%
CS(=O)(=O)Nc1ccc(CNC(=O)c2ccc(C3(C(F)(F)F)CC3)cc2)c(Cl)c1 [compound 84, 4-((1-Trifluoromethyl)cycloprop-1-yl)-N-(2-chloro-4-(methylsulfonamido)benzyl)benzamide]	31	4 ± 0.4	540 ± 20	–
CCS(=O)(=O)Nc1ccc(CNC(=O)c2ccc(C(C)(C)C)cc2)c(Cl)c1 [compound 82, 4-(tert-Butyl)-N-(2-chloro-4-(ethylsulfonamido)benzyl)-benzamide]	23	6 ± 0.5	490 ± 50	–
